In ChEMBL document CHEMBL5465560, “Selectivity Literature for EUbOPEN Chemogenomic Library” (2024):

What was measured:
[1] = biological target: Dual specificity protein kinase CLK1 (Homo sapiens, UniProt P49759); experiment: Selectivity interaction (KinomeScan (DiscoverX)) EUB0000092b CLK1; conditions: at 10 µM
[2] = biological target: T1, Prostaglandin G/H synthase 2 (Homo sapiens) (UniProt P35354); experiment: Selectivity interaction (Safety Panel 44tm (Eurofins)) EUB0000162b PTGS2; conditions: at 10 µM
T1 sequence (whole entry): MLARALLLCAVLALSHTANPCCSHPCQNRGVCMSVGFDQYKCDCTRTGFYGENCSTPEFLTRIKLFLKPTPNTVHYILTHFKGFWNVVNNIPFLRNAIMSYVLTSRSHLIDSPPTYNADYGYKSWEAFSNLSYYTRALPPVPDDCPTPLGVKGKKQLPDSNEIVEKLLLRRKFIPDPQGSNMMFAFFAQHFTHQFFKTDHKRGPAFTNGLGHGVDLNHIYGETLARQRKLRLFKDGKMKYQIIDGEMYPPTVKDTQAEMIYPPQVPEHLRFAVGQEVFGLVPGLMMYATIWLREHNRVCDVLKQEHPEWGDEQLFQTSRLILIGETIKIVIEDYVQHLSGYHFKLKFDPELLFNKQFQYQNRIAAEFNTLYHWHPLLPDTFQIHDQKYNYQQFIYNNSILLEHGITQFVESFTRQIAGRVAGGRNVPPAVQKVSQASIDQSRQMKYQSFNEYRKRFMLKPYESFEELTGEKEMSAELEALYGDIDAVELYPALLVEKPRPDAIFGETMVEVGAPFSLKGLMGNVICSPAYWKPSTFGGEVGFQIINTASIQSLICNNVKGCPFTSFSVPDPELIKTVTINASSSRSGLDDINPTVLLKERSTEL

[3] = biological target: Dual specificity protein kinase CLK4 (Homo sapiens, UniProt Q9HAZ1); experiment: Selectivity interaction (KinomeScan (DiscoverX)) EUB0000666a CLK4; conditions: at 10 µM
[4] = biological target: Tyrosine-protein kinase receptor Tie-1 (Homo sapiens) (UniProt P35590); experiment: Selectivity interaction (KinomeScan (DiscoverX)) EUB0000666a TIE1; conditions: at 10 µM
[5] = biological target: Death-associated protein kinase 3 (Homo sapiens) (UniProt O43293); experiment: Selectivity interaction (KinomeScan (DiscoverX)) EUB0000607a DAPK3; conditions: at 10 µM
[6] = biological target: T2, Serine/threonine-protein kinase TAO2 (Homo sapiens) (UniProt Q9UL54); experiment: Selectivity interaction (KinomeScan (DiscoverX)) EUB0001619a TAOK2; conditions: at 1 µM
T2 sequence (whole entry): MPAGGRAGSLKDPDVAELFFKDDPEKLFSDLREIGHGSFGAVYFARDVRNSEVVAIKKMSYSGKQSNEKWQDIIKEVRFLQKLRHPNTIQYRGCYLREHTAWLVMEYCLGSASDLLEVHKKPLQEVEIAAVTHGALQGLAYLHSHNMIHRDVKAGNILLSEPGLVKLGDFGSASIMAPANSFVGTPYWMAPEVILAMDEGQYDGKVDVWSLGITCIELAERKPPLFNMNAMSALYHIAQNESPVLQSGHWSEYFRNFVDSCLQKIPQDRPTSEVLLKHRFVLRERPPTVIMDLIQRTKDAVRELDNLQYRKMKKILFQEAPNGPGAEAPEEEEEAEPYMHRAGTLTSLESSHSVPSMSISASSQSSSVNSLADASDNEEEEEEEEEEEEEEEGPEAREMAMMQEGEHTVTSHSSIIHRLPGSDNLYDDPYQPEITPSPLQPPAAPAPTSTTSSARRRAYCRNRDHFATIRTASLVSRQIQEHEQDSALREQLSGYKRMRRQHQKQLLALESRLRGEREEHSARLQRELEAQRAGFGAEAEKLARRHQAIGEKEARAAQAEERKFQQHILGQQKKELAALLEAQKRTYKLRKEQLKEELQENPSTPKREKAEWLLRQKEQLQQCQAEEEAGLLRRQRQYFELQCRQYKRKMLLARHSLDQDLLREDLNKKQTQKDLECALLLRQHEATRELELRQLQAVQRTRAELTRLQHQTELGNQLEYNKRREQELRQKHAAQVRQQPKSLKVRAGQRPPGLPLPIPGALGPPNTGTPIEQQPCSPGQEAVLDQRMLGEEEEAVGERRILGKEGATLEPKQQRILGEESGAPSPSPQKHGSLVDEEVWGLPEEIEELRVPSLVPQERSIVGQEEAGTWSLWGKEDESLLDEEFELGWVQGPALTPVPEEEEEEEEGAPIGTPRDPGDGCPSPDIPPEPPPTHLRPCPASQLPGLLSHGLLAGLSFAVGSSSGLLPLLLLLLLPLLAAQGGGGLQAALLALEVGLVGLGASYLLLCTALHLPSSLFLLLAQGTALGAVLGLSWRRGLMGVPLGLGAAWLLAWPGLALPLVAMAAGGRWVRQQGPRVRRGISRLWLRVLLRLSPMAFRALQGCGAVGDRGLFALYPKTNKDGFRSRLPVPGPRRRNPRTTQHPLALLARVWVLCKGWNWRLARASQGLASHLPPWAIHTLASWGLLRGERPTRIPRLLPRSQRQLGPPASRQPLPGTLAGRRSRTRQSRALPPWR

Sequence of Death-associated protein kinase 3 (Homo sapiens) (O43293 whole entry, looked up): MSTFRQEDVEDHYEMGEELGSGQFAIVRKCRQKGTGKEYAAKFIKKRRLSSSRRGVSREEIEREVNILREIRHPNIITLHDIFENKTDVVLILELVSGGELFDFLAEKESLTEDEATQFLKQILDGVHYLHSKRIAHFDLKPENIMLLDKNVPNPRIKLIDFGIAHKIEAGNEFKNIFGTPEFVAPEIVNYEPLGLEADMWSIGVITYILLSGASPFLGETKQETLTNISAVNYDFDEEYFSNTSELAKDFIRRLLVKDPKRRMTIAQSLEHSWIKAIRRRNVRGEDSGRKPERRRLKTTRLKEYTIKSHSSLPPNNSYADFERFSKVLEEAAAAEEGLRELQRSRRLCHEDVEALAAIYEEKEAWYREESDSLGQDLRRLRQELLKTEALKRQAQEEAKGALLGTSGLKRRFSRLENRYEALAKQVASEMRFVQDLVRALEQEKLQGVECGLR
Sequence of Dual specificity protein kinase CLK1 (P49759 whole entry, looked up): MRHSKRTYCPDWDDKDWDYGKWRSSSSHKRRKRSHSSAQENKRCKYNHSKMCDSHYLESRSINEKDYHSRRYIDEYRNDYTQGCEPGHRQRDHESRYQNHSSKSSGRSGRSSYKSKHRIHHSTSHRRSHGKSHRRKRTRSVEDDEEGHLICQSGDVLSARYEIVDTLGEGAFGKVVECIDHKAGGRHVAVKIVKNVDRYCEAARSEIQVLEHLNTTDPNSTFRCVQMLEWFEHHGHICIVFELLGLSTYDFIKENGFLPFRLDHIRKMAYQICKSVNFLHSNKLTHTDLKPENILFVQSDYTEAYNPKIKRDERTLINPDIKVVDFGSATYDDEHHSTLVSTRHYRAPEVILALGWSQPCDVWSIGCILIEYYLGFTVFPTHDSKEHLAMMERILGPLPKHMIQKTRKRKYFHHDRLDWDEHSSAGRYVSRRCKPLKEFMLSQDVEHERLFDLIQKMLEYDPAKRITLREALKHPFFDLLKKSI
Sequence of Tyrosine-protein kinase receptor Tie-1 (Homo sapiens) (P35590 whole entry): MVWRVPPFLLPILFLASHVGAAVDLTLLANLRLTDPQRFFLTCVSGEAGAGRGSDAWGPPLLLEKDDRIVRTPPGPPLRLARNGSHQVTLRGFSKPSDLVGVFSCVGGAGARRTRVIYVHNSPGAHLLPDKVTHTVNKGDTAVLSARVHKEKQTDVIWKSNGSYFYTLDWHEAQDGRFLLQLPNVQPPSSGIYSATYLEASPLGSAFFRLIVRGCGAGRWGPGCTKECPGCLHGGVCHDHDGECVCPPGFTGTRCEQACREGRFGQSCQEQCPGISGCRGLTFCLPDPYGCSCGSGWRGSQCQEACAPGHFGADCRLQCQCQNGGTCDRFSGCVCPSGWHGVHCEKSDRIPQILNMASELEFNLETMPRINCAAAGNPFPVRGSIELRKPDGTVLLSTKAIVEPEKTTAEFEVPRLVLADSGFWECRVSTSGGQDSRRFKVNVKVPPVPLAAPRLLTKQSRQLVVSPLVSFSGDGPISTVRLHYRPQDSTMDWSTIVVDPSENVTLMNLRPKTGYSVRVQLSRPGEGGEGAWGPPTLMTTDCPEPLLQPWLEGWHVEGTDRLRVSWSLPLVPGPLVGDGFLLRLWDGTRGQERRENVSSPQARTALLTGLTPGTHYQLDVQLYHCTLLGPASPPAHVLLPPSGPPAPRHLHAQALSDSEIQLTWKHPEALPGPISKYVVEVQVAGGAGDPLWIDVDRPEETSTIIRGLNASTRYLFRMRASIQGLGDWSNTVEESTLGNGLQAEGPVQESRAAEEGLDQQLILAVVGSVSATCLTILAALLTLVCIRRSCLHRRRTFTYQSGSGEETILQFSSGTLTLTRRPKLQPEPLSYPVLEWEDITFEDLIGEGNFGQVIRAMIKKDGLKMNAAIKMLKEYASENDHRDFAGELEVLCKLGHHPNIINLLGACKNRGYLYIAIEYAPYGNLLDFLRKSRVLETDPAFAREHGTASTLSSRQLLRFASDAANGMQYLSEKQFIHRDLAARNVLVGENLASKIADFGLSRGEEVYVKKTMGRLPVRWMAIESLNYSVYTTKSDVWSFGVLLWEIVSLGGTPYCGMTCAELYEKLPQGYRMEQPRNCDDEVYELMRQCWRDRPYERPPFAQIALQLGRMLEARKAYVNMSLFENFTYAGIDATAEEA
Sequence of Dual specificity protein kinase CLK4 (Q9HAZ1 whole entry, looked up): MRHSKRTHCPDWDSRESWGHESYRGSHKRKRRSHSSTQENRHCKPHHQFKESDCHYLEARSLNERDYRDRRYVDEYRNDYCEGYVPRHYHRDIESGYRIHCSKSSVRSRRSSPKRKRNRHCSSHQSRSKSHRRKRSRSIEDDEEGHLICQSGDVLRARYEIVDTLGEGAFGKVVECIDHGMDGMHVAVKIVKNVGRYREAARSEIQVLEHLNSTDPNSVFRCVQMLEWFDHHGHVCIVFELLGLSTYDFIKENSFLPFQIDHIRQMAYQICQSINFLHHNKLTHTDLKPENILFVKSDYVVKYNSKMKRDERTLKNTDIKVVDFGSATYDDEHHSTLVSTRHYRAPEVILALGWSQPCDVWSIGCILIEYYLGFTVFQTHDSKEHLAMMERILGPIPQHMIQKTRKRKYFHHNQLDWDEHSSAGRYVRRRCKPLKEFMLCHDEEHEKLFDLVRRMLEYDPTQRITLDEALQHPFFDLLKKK

CCC(=O)N1CCN(c2ccc(-n3c(=O)ccc4cnc5ccc(-c6cnc7ccccc7c6)cc5c43)cc2C(F)(F)F)CC1
% of control [1]: 49%

CN(C)C(=O)Cn1cc(-c2ccc(-c3cncc4ccccc34)cc2)cn1
% of control [2]: 81%

O=C(NOC[C@H](O)CO)c1ccc(F)c(F)c1Nc1ccc(I)cc1F
% of control [3]: 89%
% of control [4]: 54%

CNC(=O)Nc1ccc(-c2nc(N3CC4CCC(C3)O4)c3cnn(C4CCC5(CC4)OCCO5)c3n2)cc1
% of control [5]: 100%

N#Cc1cccc(-c2c[nH]c3ncnc(N4CCOCC4)c23)c1
% of control [6]: 100%
